Experimental data: patent US6232348A, “Hydroxymethyl derivatives of 2-amino-1,2,3,4-tetrahydronaphthalene as cardiovascular agent” (Zambon Group S.p.A., priority 1997, dated 2001)

Columns and labels:
D1 = D1 activity on the rabbit splenic artery (RSA); conditions: rings contracted with U46619; agonistic activity at the peak of the effect; cumulative administration
Protocol: Evaluation of the D1 Activity on the Rabbit Splenic Artery (RSA)
Artery rings were prepared according to Semeraro et al., Naunyn. Schnied. Arch. Pharmacol., 1990, 342, 539. These were contracted with U46619 (9,11-dideoxy-11α,9α -epoxy-methanprostaglandine F2α) at a submaximal concentration of […]. The tested compounds were cumulatively administered.
As reference compound (S)-N-propyl-N-{6-[2-(2-methoxyphenoxy)-ethylamino]-hexyl}-5,6-dihydroxy-1,2,3,4-tetrahydro-2-naphthylamine dihydrochloride (Ref. A), described in example 6 of the international patent application No. WO 93/19036 was employed. Furthermore a compound of the invention was compared with its corresponding compound having in 5-position a hydroxy group in the place of a hydroxymethyl group. i.e. Compound 22 of the international patent application No. WO 96/08228, (S)-N-propyl-N-{6-[2-(4-methylsulfonylphenyl)-ethylamino]hexyl}-5,6-dihydroxy-1,2,3,4-tetrahydro-2-naphthylamine dihydrobromide (Ref. B). The agonistic activity was evaluated at the peak of the effect and expressed as potency ratio (EC50 of Ref. A/EC50 of the tested compound), as shown in Table 1.

D2 = D2 activity in the rabbit ear artery (REA); parameters: species or system New Zealand rabbit; conditions: electrically stimulated artery rings; agonistic activity at the peak of the effect; cumulative administration
Protocol: Evaluation of the D2 Activity in the Rabbit Ear Artery (REA)
Artery rings were prepared following the method described by Steinsland et al., Science, 1978, 443, 199, modified as follows.
Male New Zealand rabbits (weighing 2.5-3 Kg) were sacrificed by a pentobarbital intravenous injection and bled. The central ear artery was cut into 3 mm-rings. The samples were placed into a 25 ml-bath containing a Krebs solution (mM/l): sodium chloride 118, potassium chloride 4.7, calcium chloride 2.5, magnesium sulphate 1.2, sodium hydrogenocarbonate 25, potassium biphosphate 1.2, glucose 11.1, balanced with oxygen 95%/carbon dioxide 5% and maintained at 35±1° C. The Krebs solution was added with EDTA (10 μM) to present the cathecolamine oxidation, with desipramine (0.1 μM) and corticosterone (30 μM) to stop the neuronal and extraneuronal cathecolamine re-uptake.
The samples were electrically stimulated (10 Hz, 1 msec., 40-80 mA, 500 msec long) at intervals of 5 minutes.
The tested compounds were cumulatively administered.
As reference compounds the reference compounds A and B above were employed.
The agonistic activity was evaluated at the peak of the effect and expressed as potency ratio (EC50 of Ref. A/EC50 of the tested compound), as shown in Table 1.

[1] = Hypotensive activity in the anaesthetized dog; format: in vivo; conditions: intraduodenal (oral) administration, anaesthetized Beagle dogs; 184 nmoles/kg (compound of the invention), 5.52 nmoles/kg (Ref. B), doses equally active i.v.; 0-360 min
Protocol: Evaluation of the Hypotensive Activity in the Dog
Beagle dogs were anhaestetized with sodium pentobarbital (30 mg/kg i.v.) and a catheter was put in their carotid artery to measure the blood pressure. The catheter was connected with a pressure transductor. The compounds were administered by a catheter put in the duodenum. The effect on the average blood pressure is expressed as average effect with respect to the test time (Eavg =AUC0-360 /minutes) according to what described by Fettner S. H. et al., Eur. J. Clin. Pharmacol., 48:351-359, 1995. As reference compound the reference compound B above (Ref. B) was used. The controls were treated with the vehicle only.
The doses used for the oral administration were selected on the basis of the hypotensive activity data obtained after intravenous administration.

[2] = Absolute oral bioavailability in the dog; format: in vivo; conditions: Beagle dogs (4), 1 mg/kg oral by gavage vs 0.2 mg/kg bolus, domperidone pretreatment
Protocol: Evaluation of the Absolute Oral Bioavailability
Four Beagle dogs were intramuscularly treated with 20 mg of domperidone (to avoid emesis) and, after 60 minutes, with a bolus of 0.2 mg/kg of a solution of the compound of example 13. The solution of this compound was prepared by dissolving 10 mg thereof in 100 μl of ethanol and 380 μl of 0.1N HCl, the resulting solution being brought to 10 ml with water. Appropriate volumes of this solution were administered to obtain the desired dose based on the dog weight.
Venous blood sample (3 ml) were collected before drug administration and the following times after dosing: 2.5, 5, 10, 15, 20, 30, 45, 60, 90, 120, 180, 240, 300 and 360 minutes.
After a washout period of 7 days, the same 4 Beagle dogs were intramuscularly treated with 20 mg of domperidone and, after 60 minutes, orally treated by gavage with the compound of Example 13 at the dose of 1 mg/kg. […]
The following pharmacokinetic parameters were determined by non-compartmental analysis from the individual plasma concentration of the compound of Example 13: […]
AUC(()-t), the area under the plasma concentration-time curve between time zero and the last concentration observed, estimated by the linear trapezoidal rule; Absolute bioavailability (F), the percentage of oral dose that is systemically available, calculated according to the following equation: [formula] […]

D1 activity (RSA), potency ratio (EC50 of Ref. A/EC50 of the tested compound) (D1)	D2 activity (REA), potency ratio (EC50 of Ref. A/EC50 of the tested compound) (D2)	Absolute oral bioavailability (F) ([2]; listed as Example 13, 1 mg/kg)	bioavailability ([2]; dog, plasma, po, 1 mg/kg, read-out: Absolute oral bioavailability (F)) [%]	Compound	average effect on blood pressure (Eavg = AUC0-360/minutes) [1] [mmHg]
2.5	1.25	28-43%	38.8 ± 7.2	CCCN(CCCCCCNCCc1ccc(S(C)(=O)=O)cc1)[C@H]1CCc2c(ccc(O)c2CO)C1 [Example 7, (S)-N-propyl-N-(6-(2-(4-methylsulfonylphenyl)ethylamino)hexyl)-5-hydroxymethyl-6-hydroxy-1,2,3,4-tetrahydro-2-naphthylamine]	-17.4±3.0
1	1	–	–	CCCN(CCCCCCNCCOc1ccccc1OC)[C@H]1CCc2c(ccc(O)c2O)C1.Cl.Cl [Ref. A, (S)-N-propyl-N-{6-[2-(2-methoxyphenoxy)-ethylamino]-hexyl}-5,6-dihydroxy-1,2,3,4-tetrahydro-2-naphthylamine dihydrochloride]	–
50	3.3	–	–	Br.Br.CCCN(CCCCCCNCCc1ccc(S(C)(=O)=O)cc1)[C@H]1CCc2c(ccc(O)c2O)C1 [Ref. B, (S)-N-propyl-N-{6-[2-(4-methylsulfonylphenyl)-ethylamino]hexyl}-5,6-dihydroxy-1,2,3,4-tetrahydro-2-naphthylamine dihydrobromide]	-3.5±3.9
